Results from patent publication US8785594B2, “Glycoproteins and glycosylated cells and a method for the preparation of the same” (Glycom A/S, priority 2007, dated 2014).

Tested on: human breast cancer-cell line
Experiment: Flow cytometry with fluorescent labeled-lectin of modified cells (Examples 8-10)
Format: cell-based
Conditions: 25 mg, PBS, 3 h at 37° C.
Procedure: α-Gal epitope-cyclic carbamate 6 (disaccharide) (25 mg) and human breast cancer-cell line 7 (2×10^6 number cell) were mixed in PBS buffer (5 mL) (see FIG. 3). The mixture was kept for 3 h at 37° C., and then the mixture was subjected to centrifugation to separate the cells from the medium.
α-Gal epitope-carbamate 6 (disaccharide) (25 mg) and human breast cancer-cell line 7 (1×10^6 number cell) were mixed in PBS buffer (5 mL) (see FIG. 3). The mixture was kept for 3 h at 37° C., and then the mixture was subjected to centrifugation to separate the cells from the medium.
α-Gal epitope-carbamate 6 (disaccharide) (25 mg) and human breast cancer-cell line 7 (5×10^5 number cell) were mixed in PBS buffer (5 mL) (see FIG. 3). The mixture was kept for 3 h at 37° C., and then the mixture was subjected to centrifugation to separate the cells from the medium.

Measured: Modification of cells shown with fluorescent labeled-lectin

O=C1NC2OC(CO)C(O)C(OC3OC(CO)C(O)C(O)C3O)C2O1 (stereo not drawn) [Compound 6, α-Gal epitope-cyclic carbamate]
modification has been proven: 1×10^6 cells | 2×10^6 cells | 5×10^5 cells
